In patent US10835840B2, “Methods for in situ separation of mixtures” (INTERNATIONAL SCIENTIFIC PTY LTD, priority 2015, dated 2020):
Values joined by “and” are separate entries in the source; they are usually repeats but may differ in a detail not shown here. Equal values may be shown once. Values belong to the molecule of their own block, whether it stands above or below them.

How the values were obtained:
[1] = in vivo
Description: The subject's volar forearm or upper arm was delineated into two 3×3 cm square regions which were designated […]. […] After an absorption period of 30 minutes, the excess mixture was removed from each region by washing with water. The region was then tape stripped using the adapted procedure of Lademann et al (The tape stripping procedure—evaluation of some critical parameters. European Journal of Pharmaceutics and Biopharmaceutics 72 (2009) 317-323).

[2] = Tape stripping after applying niacinamide gel mixture with or without weak magnetic field (ETP008), mass spectrometry; type: in vivo; set-up: unit not given here
Description: ETP008—a linear array of displaced dipolar magnetic elements comprising strontium oxides dispersed in a PVC film base. The displaced dipolar magnetic elements were created in parallel with a pole flux of 450 Gauss. Each element or pole was 2.7 mm wide, creating a pair of displaced dipolar magnetic elements of pitch of 1.5 pairs per centimetre. Inter-pair flux gradient was 900 Gauss or 1350 Gauss per centimetre.
An aliquot of the niacinamide mixture was applied to both regions without rubbing. A magnetic film (ETP008) was placed in close proximity (approximately 0.5 mm) above the Active region for 5 minutes.
The Tape strip samples were then analysed for niacinamide using a validated mass spectrometry method.

[3] = Active, Total (6-10) tape strips
[4] = Passive, Total (6-10) tape strips

Penetration of Vitamin E into the skin, in words [1]: much greater penetration
Molecule: Vitamin E

Niacinamide penetration, Average ([2]; Active (weak magnetic field, ETP008), Tape Strip 1): 2.907 | Niacinamide penetration, Average ([2]; Active, Tape Strip 2): 2.036 | Niacinamide penetration, Average ([2]; Active, Tape Strip 3): 1.12 | Niacinamide penetration, Average ([2]; Active, Tape Strip 4): 0.8796 | Niacinamide penetration, Average ([2]; Active, Tape Strip 5): 0.8556 | Niacinamide penetration, Average ([2]; Active, Tape Strip 6): 0.7575 | Niacinamide penetration, Average ([2]; Active, Tape Strip 7): 0.6674 | Niacinamide penetration, Average ([2]; Active, Tape Strip 8): 0.5672 | Niacinamide penetration, Average ([2]; Active, Tape Strip 9): 0.4439 | Niacinamide penetration, Average ([2]; Active, Tape Strip 10): 0.3798 | Niacinamide penetration, Average [2, 3]: 2.816 | Niacinamide penetration, Average ([2]; Passive (no weak magnetic field), Tape Strip 1): 2.428 | Niacinamide penetration, Average ([2]; Passive, Tape Strip 2): 1.353 | Niacinamide penetration, Average ([2]; Passive, Tape Strip 3): 1.193 | Niacinamide penetration, Average ([2]; Passive, Tape Strip 4): 0.9603 | Niacinamide penetration, Average ([2]; Passive, Tape Strip 5): 0.8282 | Niacinamide penetration, Average ([2]; Passive, Tape Strip 6): 0.6176 | Niacinamide penetration, Average ([2]; Passive, Tape Strip 7): 0.6112 | Niacinamide penetration, Average ([2]; Passive, Tape Strip 8): 0.4614 | Niacinamide penetration, Average ([2]; Passive, Tape Strip 9): 0.3664 | Niacinamide penetration, Average ([2]; Passive, Tape Strip 10): 0.3966 | Niacinamide penetration, Average [2, 4]: 2.453
Molecule: NC(=O)c1cccnc1 [Niacinamide]
Niacinamide penetration, individual columns 1-6 ([2]; Active (weak magnetic field, ETP008, 5 minutes), Tape Strip 1, gel mixture, 30 minutes absorption): 4.463 and 1.099 and 1.021 and 3.47 and 2.739 and 4.647 | Niacinamide penetration, individual columns 1-6 ([2]; Active, Tape Strip 2): 1.782 and 0.5649 and 1.07 and 1.211 and 2.226 and 5.364 | Niacinamide penetration, individual columns 1-6 ([2]; Active, Tape Strip 3): 1.137 and 0.5147 and 1.116 and 1.035 and 1.694 and 1.226 | Niacinamide penetration, individual columns 1-6 ([2]; Active, Tape Strip 4): 0.9888 and 0.7087 and 1.098 and 0.8548 and 0.8425 and 0.7848 | Niacinamide penetration, individual columns 1-6 ([2]; Active, Tape Strip 5): 0.9146 and 0.7814 and 0.7495 and 0.8808 and 1.167 and 0.6402 | Niacinamide penetration, individual columns 1-6 ([2]; Active, Tape Strip 6): 0.895 and 0.8145 and 0.5287 and 0.8757 and 0.7531 and 0.6777 | Niacinamide penetration, individual columns 1-6 ([2]; Active, Tape Strip 7): 0.6261 and 0.5502 and 0.4859 and 0.6321 and 0.6608 and 1.049 | Niacinamide penetration, individual columns 1-6 ([2]; Active, Tape Strip 8): 0.4149 and 0.7107 and 0.4741 and 0.5541 and 0.5753 and 0.6739 | Niacinamide penetration, individual columns 1-6 ([2]; Active, Tape Strip 9): 0.4666 and 0.5396 and 0.4059 and 0.4627 and 0.4898 and 0.2985 | Niacinamide penetration, individual columns 1-6 ([2]; Active, Tape Strip 10): 0.4229 and 0.3982 and 0.3809 and 0.2336 and 0.5187 and 0.3243 | Niacinamide penetration, individual columns 1-6 [2, 3]: 2.826 and 3.013 and 2.276 and 2.758 and 2.998 and 3.024 | Niacinamide penetration, individual columns 1-6 ([2]; Passive (no weak magnetic field), Tape Strip 1, gel mixture, 30 minutes absorption): 4.785 and 1.997 and 0.8068 and 3.16 and 2.0563 and 1.761 | Niacinamide penetration, individual columns 1-6 ([2]; Passive, Tape Strip 2): 1.077 and 0.9778 and 1.464 and 0.9842 and 1.846 and 1.768 | Niacinamide penetration, individual columns 1-6 ([2]; Passive, Tape Strip 3): 0.6071 and 0.8166 and 1.131 and 1.06 and 1.456 and 2.085 | Niacinamide penetration, individual columns 1-6 ([2]; Passive, Tape Strip 4): 0.4947 and 1.297 and 0.8954 and 0.5456 and 0.8406 and 1.689 | Niacinamide penetration, individual columns 1-6 ([2]; Passive, Tape Strip 5): 0.5925 and 0.8516 and 0.935 and 0.6655 and 0.6213 and 1.303 | Niacinamide penetration, individual columns 1-6 ([2]; Passive, Tape Strip 6): 0.5736 and 0.5759 and 0.7258 and 0.5432 and 0.6385 and 0.6487 | Niacinamide penetration, individual columns 1-6 ([2]; Passive, Tape Strip 7): 0.5936 and 0.4867 and 0.5056 and 0.622 and 0.5467 and 0.9127 | Niacinamide penetration, individual columns 1-6 ([2]; Passive, Tape Strip 8): 0.5657 and 0.4006 and 0.4313 and 0.3634 and 0.4878 and 0.5195 | Niacinamide penetration, individual columns 1-6 ([2]; Passive, Tape Strip 9): 0.3146 and 0.4048 and 0.4168 and 0.4248 and 0.2422 and 0.3954 | Niacinamide penetration, individual columns 1-6 ([2]; Passive, Tape Strip 10): 0.3563 and 0.5215 and 0.2107 and 0.4442 and 0.3186 and 0.5283 | Niacinamide penetration, individual columns 1-6 [2, 4]: 2.404 and 2.39 and 2.29 and 2.398 and 2.234 and 3.005
